Reference: the supplement of paper PMC10307832

Key:
Assay in all cases: relative viability (nuclei count vs DMSO), 5 days (fraction); higher = more cells survive
[1] = compound: C[C@@H](C(=O)N[C@@H](C1CCCCC1)C(=O)N2CCC[C@H]2C(=O)N[C@@H]3[C@@H](CC4=CC=CC=C34)OCC#CC#CCO[C@@H]5CC6=CC=CC=C6[C@@H]5NC(=O)[C@@H]7CCCN7C(=O)[C@H](C8CCCCC8)NC(=O)[C@H](C)NC)NC [AZD5582] + NC(=O)Nc1cc(-c2cccc(F)c2)sc1C(=O)N[C@H]1CCCNC1 [AZD7762] (partner 0.2 µM)
Procedure, shortened: (§1)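 Relative viability is defined as nuclei in treated wells over nuclei in vehicle wells. Duplicate plates were run and medians reported. Lung cancer cell lines in 1536-well plates were dosed by pin tool one day after seeding, with one drug or with a fixed anchor-drug dose plus five library-drug doses (not always all listed) in √10 steps, and nuclei were counted after 5 days.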

[2] = compound: Cn1nnc2c(C(N)=O)ncn2c1=O [Temozolomide] + C[C@@H](Oc1cc(-c2cnn(C3CCNCC3)c2)cnc1N)c1c(Cl)ccc(F)c1Cl [Crizotinib] (partner 1 µM)
Procedure, shortened: as §1

[3] = compound: Cn1nnc2c(C(N)=O)ncn2c1=O [Temozolomide] + Nc1ncn([C@H]2C[C@H](O)[C@@H](CO)O2)c(=O)n1 [Decitabine] (partner 2 µM)
Procedure, shortened: as §1

[4] = compound: C[C@@H](C(=O)N[C@@H](C1CCCCC1)C(=O)N2CCC[C@H]2C(=O)N[C@@H]3[C@@H](CC4=CC=CC=C34)OCC#CC#CCO[C@@H]5CC6=CC=CC=C6[C@@H]5NC(=O)[C@@H]7CCCN7C(=O)[C@H](C8CCCCC8)NC(=O)[C@H](C)NC)NC [AZD5582] + CC(=O)c1c(C)c2cnc(Nc3ccc(N4CCNCC4)cn3)nc2n(C2CCCC2)c1=O [Palbociclib] (partner 0.5 µM)
Procedure, shortened: as §1

Cell Line | relative viability ([1]; first compound 0.001581 µM) | relative viability ([1]; first compound 0.005 µM) | relative viability ([1]; first compound 0.01581 µM) | relative viability ([1]; first compound 0.05 µM) | relative viability ([2]; first compound 0.2 µM) | relative viability ([2]; first compound 0.6325 µM) | relative viability ([2]; first compound 2 µM) | relative viability ([2]; first compound 6.325 µM) | relative viability ([2]; first compound 20 µM) | relative viability ([3]; first compound 0.2 µM) | relative viability ([3]; first compound 0.6325 µM) | relative viability ([3]; first compound 2 µM) | relative viability ([3]; first compound 6.325 µM) | relative viability ([3]; first compound 20 µM) | relative viability ([4]; first compound 0.001581 µM) | relative viability ([4]; first compound 0.005 µM) | relative viability ([4]; first compound 0.01581 µM) | relative viability ([4]; first compound 0.05 µM)
NCI-H3122 | 0.899 | 0.988 | 1.01 | 0.306 | 0.291 | 0.281 | 0.324 | 0.264 | 0.235 | 0.438 | 0.484 | 0.611 | 0.478 | 0.378 | 0.197 | 0.185 | 0.181 | 0.143
NCI-H1993 | 0.694 | 0.867 | 0.7 | 1.03 | 0.779 | 0.85 | 0.876 | 0.94 | 0.703 | 0.535 | 0.69 | 0.607 | 0.654 | 0.513 | 0.564 | 0.558 | 0.655 | 0.664
BEN | 0.74 | 0.701 | 0.866 | 0.619 | 0.649 | 0.858 | 0.814 | 0.815 | 0.717 | 0.77 | 0.677 | 0.808 | 0.7 | 0.659 | 0.416 | 0.466 | 0.497 | 0.435
NCI-H1792 | 0.647 | 0.625 | 0.585 | 1.02 | 0.957 | 1.05 | 1 | 0.76 | 0.972 | 0.434 | 0.599 | 0.407 | 0.549 | 0.54 | 0.629 | 0.715 | 0.624 | 0.776
PC-14 | 0.255 | 0.247 | 0.294 | 0.183 | 0.954 | 0.902 | 0.829 | 0.812 | 0.732 | 0.27 | 0.241 | 0.245 | 0.21 | 0.182 | 0.401 | 0.322 | 0.47 | 0.34
EKVX | 0.603 | 0.661 | 0.565 | 0.595 | 0.357 | 1.07 | 0.951 | 0.886 | 0.551 | – | 0.295 | 0.236 | 0.34 | 0.221 | 0.378 | 0.425 | 0.298 | 0.393
